Laboratory results as given in patent publication US11578080B2, “Thienopyrimidones” (Boehringer Ingelheim International GmbH, priority 2019, dated 2023).

Tests used:
[1] = Assay B: Microsomal clearance; type: in vitro ADME, human; conditions: pooled liver microsomes, 1 μM test compound, 37° C.
Experimental: Assay B: Microsomal Clearance:
The metabolic degradation of the test compound is assayed at 37° C. with pooled liver microsomes. The final incubation volume of 100 μl per time point contains TRIS buffer pH 7.6 at RT (0.1 M), magnesium chloride (5 mM), microsomal protein (1 mg/ml) and the test compound at a final concentration of 1 μM.
Following a short preincubation period at 37° C., the reactions are initiated by addition of beta-nicotinamide adenine dinucleotide phosphate, reduced form (NADPH, 1 mM) and terminated by transferring an aliquot into solvent after different time points (0, 5, 15, 30, 60 min). Additionally, the NADPH-independent degradation is monitored in incubations without NADPH, terminated at the last time point. The [%] remaining test compound after NADPH independent incubation is reflected by the parameter c(control) (metabolic stability). The quenched incubations are pelleted by centrifugation (10000 g, 5 min).
An aliquot of the supernatant is assayed by LC-MS/MS for the amount of parent compound. The half-life (t½ INVITRO) is determined by the slope of the semilogarithmic plot of the concentration-time profile.
The intrinsic clearance (CL_[…]) is calculated by considering the amount of protein in the incubation: CL_[…] [μl/min/mg protein]=(Ln 2/(half-life [min]*protein content [mg/ml]))*1000 CL_[…]_INVIVO [ml/min/kg]=(CL_[…] [μL/min/mg protein]×MPPGL [mg protein/g liver]×liver factor [g/kg body weight])/1000 Qh [%]=CL [ml/min/kg]/hepatic blood flow [ml/min/kg])
(§1) Hepatocellularity, human: 120×10e6 cells/g liver
(§2) Liver factor, human: 25.7 g/kg bodyweight
(§3) Blood flow, human: 21 ml/(min×kg)

[2] = Assay D: Metabolism in human hepatocytes in vitro; type: in vitro ADME; conditions: primary human hepatocytes, 10 μM
Experimental: Assay D: Metabolism in Human Hepatocytes In Vitro
The metabolic pathway of a test compound is investigated using primary human hepatocytes in suspension.
Following a 30 min preincubation in a cell culture incubator (37° C., 10% CO2), test compound solution is spiked into the hepatocyte suspension to obtain a final cell density of 1.0*10^6 to 4.0*10^6 cells/ml (depending on the metabolic turnover rate of the compound observed with primary human hepatocytes), a final test compound concentration of 10 μM, and a final DMSO concentration of 0.05%.
The cells are incubated for six hours in a cell culture incubator on a horizontal shaker, and samples are removed from the incubation after 0, 0.5, 1, 2, 4 or 6 hours, depending on the metabolic turnover rate. Samples are quenched with acetonitrile and pelleted by centrifugation. The supernatant is transferred to a 96-deepwell plate, evaporated under nitrogen and resuspended prior to bioanalysis by liquid chromatography-high resolution mass spectrometry for identification of putative metabolites.

[3] = Assay C: Hepatocyte clearance; type: in vitro ADME, human; conditions: hepatocyte suspension, 1 μM test compound
Experimental: Assay C: Hepatocyte Clearance
The metabolic degradation of the test compound is assayed in a hepatocyte suspension. Hepatocytes (cryopreserved) are incubated in. Dulbecco's modified eagle medium (supplemented with 3.5 μg glucagon/500 mL, 2.5 mg insulin/500 mL and 3.75 mg/500 mL hydrocortison) containing 5% or 50% species serum.
Following a 30 min preincubation in an incubator (37° C., 10% CO2) 5 μl of test compound solution (80 μM; from 2 mM in DMSO stock solution diluted 1:25 with medium) are added into 395 μl hepatocyte suspension (cell density in the range 0.25-5 Mio cells/mL depending on the species, typically 1 Mio cells/mL; final concentration of test compound 1 μM, final DMSO concentration 0.05%).
The cells are incubated for six hours (incubator, orbital shaker) and samples (25 μl) are taken at 0, 0.5, 1, 2, 4 and 6 hours. Samples are transferred into acetonitrile and pelleted by centrifugation (5 min). The supernatant is transferred to a new 96-deepwell plate, evaporated under nitrogen and resuspended.
Decline of parent compound is analyzed by HPLC-MS/MS
CLint is calculated as follows CL_[…]=Dose/AUC=(C0/CD)/(AUD+clast/k)×1000/60. CO: initial concentration in the incubation [μM], CD: cell density of vital cells [10e6 cells/mL], AUD: area under the data [μM×h], clast: concentration of last data point [μM], k: slope of the regression line for parent decline [h-1].
The calculated in vitro hepatic intrinsic clearance can be scaled up to the intrinsic in vivo hepatic Clearance and used to predict hepatic in vivo blood clearance (CL) by the use of a liver model (well stirred model). CL_[…]_INVIVO [ml/min/kg]=(CL_[…] [μL/min/10e6 cells]×hepatocellularity [10e6 cells/g liver]×liver factor [g/kg body weight])/1000 CL [ml/min/kg]=CL_[…]_INVIVO [ml/min/kg]×hepatic blood flow [ml/min/kg]/(CL_[…]_INVIVO [ml/min/kg]+hepatic blood flow [ml/min/kg]) Qh [%]=CL [ml/min/kg]/hepatic blood flow [ml/min/kg])
as §1, §2, §3

human TRPA1 ion channel = human TRPA1 ion channel (Homo sapiens (Human), UniProt O75762); assay: Assay A: TRPA1 assay (FLIPR calcium, AITC agonism, HEK293 over-expressing human TRPA1); type: cell-based; conditions: HEK293 over-expressing human TRPA1, AITC 10 μM, FLIPRtetra; read-out: hTRPA1 IC50
human TRPA1 ion channel, sequence (O75762 whole entry): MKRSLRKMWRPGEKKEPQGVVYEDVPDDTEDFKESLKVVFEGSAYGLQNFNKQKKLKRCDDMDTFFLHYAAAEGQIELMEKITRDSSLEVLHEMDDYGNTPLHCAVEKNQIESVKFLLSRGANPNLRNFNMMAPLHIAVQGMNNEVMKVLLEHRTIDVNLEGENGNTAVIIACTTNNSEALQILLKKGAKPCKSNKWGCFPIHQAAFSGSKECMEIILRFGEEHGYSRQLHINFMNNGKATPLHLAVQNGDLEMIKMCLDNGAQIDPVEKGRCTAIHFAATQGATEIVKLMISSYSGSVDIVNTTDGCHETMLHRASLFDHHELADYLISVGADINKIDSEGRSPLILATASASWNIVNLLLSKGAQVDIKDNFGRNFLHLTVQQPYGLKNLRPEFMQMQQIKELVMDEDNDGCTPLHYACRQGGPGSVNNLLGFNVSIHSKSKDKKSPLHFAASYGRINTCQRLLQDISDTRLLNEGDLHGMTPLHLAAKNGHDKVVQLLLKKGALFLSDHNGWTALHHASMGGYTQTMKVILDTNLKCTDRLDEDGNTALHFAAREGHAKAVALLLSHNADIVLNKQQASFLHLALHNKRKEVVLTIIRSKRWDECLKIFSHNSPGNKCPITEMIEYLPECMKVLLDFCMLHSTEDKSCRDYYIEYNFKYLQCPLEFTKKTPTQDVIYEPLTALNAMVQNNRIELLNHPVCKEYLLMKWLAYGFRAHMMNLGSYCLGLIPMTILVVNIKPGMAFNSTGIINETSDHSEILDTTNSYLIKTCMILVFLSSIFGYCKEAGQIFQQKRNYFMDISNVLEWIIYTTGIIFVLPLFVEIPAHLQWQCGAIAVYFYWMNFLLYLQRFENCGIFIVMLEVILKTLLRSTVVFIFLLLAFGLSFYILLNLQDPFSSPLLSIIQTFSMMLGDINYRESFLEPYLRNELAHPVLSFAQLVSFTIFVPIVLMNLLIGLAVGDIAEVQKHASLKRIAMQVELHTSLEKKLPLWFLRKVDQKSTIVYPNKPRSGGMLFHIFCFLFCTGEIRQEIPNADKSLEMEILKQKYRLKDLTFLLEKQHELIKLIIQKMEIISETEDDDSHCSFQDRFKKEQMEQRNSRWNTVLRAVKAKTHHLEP
Experimental: A human HEK293 cell line over-expressing the human TRPA1 ion channel (Perkin Elmer, Product No. AX-004-PCL) was used as a test system for compound efficacy and potency. Compound activity was determined by measuring the effect of compounds on intracellular calcium concentration induced by AITC (Allylisothiocyanat) agonism in a FLIPRtetra system (Molecular Devices).
The cells were obtained as frozen cells in cryo-vials and stored until use at −150° C. Cells were grown in culture medium (MEM/EBSS medium with 10% FCS and 0.4 mg/ML Geneticin). […] For sub-culturing cells were detached from flasks by Versene. At the day before the assay, cells were detached, washed twice with medium (MEM/EBSS medium with 10% FCS) and 20000 cells in 20 μl/well were seeded to Poly D-Lysin biocoated 384-well plates (black, clear bottom, Cat. 356697) from Corning. Plates were incubated for 24 hours at 37° C./5% CO2 before use in the assay.
The test compounds were dissolved in 100% DMSO at a concentration of 10 mM and in a first step diluted in DMSO to a concentration of 5 mM, followed by serial dilution steps in 100% DMSO. Dilution factor and number of dilution steps may vary according to needs. Typically 8 different concentrations by 1:5 dilutions were prepared, further intermediate dilutions (1:20) of the substances were carried out with HBSS/HEPES buffer (1×HEPES, Cat. 14065 from Gibco, 20 mM HEPES, Cat. 83264 from SIGMA, 0.1% BSA Cat. 11926 from Invitrogen, pH 7,4
At the assay day cells were washed 3× with assay puffer, 20 μL buffer remained in the wells after washing. 10 μL Ca6 kit (Cat. R8191 MolecularDevices) loading buffer in HBSS/HEPES was added to the cells and the plates were incubated with lid for 120 minutes at […]. 10 μL of compound or controls in HBSS/HEPES buffer/5% DMSO from the intermediate dilution plate were carefully added to the wells. […] Finally 10 μL of the agonist AITC 50 μM dissolved in HBSS/HEPES buffer/0.05% DMSO (final concentration 10 μM) was added to the wells followed by an additional read on the FLIPRtetra device for 10 minutes. The area under the signal curve (AUC) after AITC addition was used for IC50/% inhibition calculations
Data Evaluation and Calculation:
Each assay microtiter plate contained wells with vehicle (1% DMSO) controls instead of compound as controls for AITC induced luminescence (100% CTL; high controls) and wells with vehicle controls without AITC as controls for non-specific changes in luminescence (0% CTL; low controls).
The analysis of the data was performed by the calculation of the area under signal curve of the individual wells. Based on this values the % value for the measurement of each substance concentration was calculated (AUC(sample)−AUC(low))*100/(AUC(high)−AUC(low)) using MegaLab software (in house development). The IC50 values were calculated from the % control values using MegaLab software. Calculation: [y=(a−d)/(1+(x/c)^b)+d], a=low value, d=high value; x=cone M; c=IC50 M; b=hill; y=% ctrl

O=C1NCCc2c1sc1ncn(Cc3nnn(C[C@H](O)c4ccc(Cl)cc4)n3)c(=O)c21 [Example 6]
human LM [% Qh] [1]: <23 % Qh
Major metabolite observed: Mechanism ([2]; Metabolite M1): Oxygenation
Major metabolite observed: Mechanism ([2]; Metabolite M2): Dehydrogenation
Major metabolite observed: Mechanism ([2]; Metabolite M3): Glucuronidation
human Hepatocytes [% Qh] [3]: 7 % Qh
IC50 (human TRPA1 ion channel): 11 nM
